Test results published in article PMC8752738, “A propolis-derived small molecule ameliorates metabolic syndrome in obese mice by targeting the CREB/CRTC2 transcriptional complex” (Nature Communications, 2022).
Where “and” joins values, the source holds several entries; their conditions need not be identical. Identical values can stand only once.

Tests used:
[1] = biological target: T1, endogenous CRTC2 / CBP interaction (Mus musculus, UniProt P45481+Q3U182); assay: Co-immunoprecipitation by anti-CRTC2 antibody, primary hepatocytes: CBP; type: cell-based
T1 construct: endogenous in cells; host or cells: mouse primary hepatocytes
Description: Fig. 2 APC blocks interaction between CREB and CRTC2. a Analysis of GST-CREB immunoprecipitated with overexpressed FLAG-CRTC2 from the lysates of HEK293T cells. APC (10 μM) was added to the culture media for 1 h and the following IP mixture. The relative gray density of FLAG in GST-pull-down fraction is shown as a bar graph (bottom). One of three independent experiments is presented (top, n = 3). Data are represented as mean ± SEM); P values were determined by one-way ANOVA followed Dunnett’s multiple comparisons test. b Analysis of HA-CRTC2 immunoprecipitated with endogenous CREB from primary hepatocyte lysates. […] Data are represented as mean ± SEM; P values were determined by one-way ANOVA followed Dunnett’s multiple comparisons test. c Immunoblotting analysis of endogenous CREB, CRTC2, and CBP interaction by an anti-CRTC2 antibody from the lysate of primary hepatocytes. […] Data are represented as mean ± SEM; P values were determined by two-way ANOVA followed Bonferroni’s multiple comparisons test. d Immunoblotting analysis of protein GST-CREB recovered HIS-CRTC2-S171A proteins purified from E. coli. […] Data are represented as mean ± SEM; P values were determined by one-way ANOVA followed Dunnett’s multiple comparisons test (compared with APC = 0). […]

CBP = CBP (Homo sapiens, UniProt Q92793); assay: Acetyltransferase activity of CBP (H3K27ac immunoblot, HEK293 cells); type: cell-based; settings: for relative H3K27ac level: Fig 3d replicates, HA-CBP +, TSA-0.5uM +
Text: Fig. 3 APC inhibits CRTC2 interacting with CREB-ZIP and reduces acetyltransferase activity of CBP by binding with CREB protein directly. a Isothermal titration calorimetry (ITC) of HIS-CREB protein solution titrated into APC solution. The bottom solid line represents a nonlinear least-squares fitted by a single-site binding model. One of two independent experiments is shown here. b IC50 of APC inhibitory activity detected by CREB–CRTC2 two-hybrid assay in HEK293T cells (n = 3 per treatment, data are represented as mean ± SEM). One of three independent experiments is shown here. c Immunoprecipitation analysis of FLAG-CRTC2-WT recovered by anti-MYC antibody from HEK293 cells co-transfected with plasmids for a Myc-Creb-Zip fragment and the FLAG-Crtc2-Wt, stimulated by FSK (10 nM) for 2-h before harvest. APC (1–10 μM) was included in immunoprecipitation mixtures as indicated. Top represents one of three independent experiments, and the relative gray density of FLAG normalized to MYC in MYC-IP- factions is shown as a bar graph (bottom, n = 3). Data are represented as mean ± SEM; P values were determined by one-way ANOVA followed Dunnett’s multiple comparisons test. d Immunoblotting analysis of the acetyltransferase activity of CBP. The protein levels of H3K27ac and total Histone H3 were determined using specific antibodies from HEK293 cell lysate overexpressing HA-Cbp plasmid. […] The top represents one of three independent experiments, and the relative gray density of H3K27ac normalized to total Histone H3 in cell lysate is shown as a bar graph (bottom, n = 3). Data are represented as mean ± SEM; P values were determined by one-way ANOVA followed Dunnett’s multiple comparisons test. ns, P > 0.05; *P < 0.05; **P < 0.01. Sources data for this figure are provided as source data file.

AMPK = assay: Phospho-AMPK immunoblot in primary hepatocytes; type: cell-based, mouse; settings: for relative p-AMPK protein, mean: N=3 (0 μM = 1); for relative p-AMPK protein: Supp. fig.3e, individual replicates
Description: Immunoblotting and immunoprecipitation assays were performed as previously described, with antibodies recognizing CREB, Ser133-P-CREB, AMPK, P-AMPK, AKT, P-AKT (Cell Signaling), PGC-1α (Merck), CRTC2 (Calbiochem), PCK1 (Santa Cruz), SREBP1 (Santa Cruz), SREBP2 (BD), HA (Convance), LXRα (Santa Cruz), FLAG (Sigma), GST (Covance), HIS (Abmart), GAPDH (AOGMA), α-TUBULIN (Abmart), β-ACTIN (Abmart), and other antibodies (Supplementary Table 3). For immunostaining assays, primary cultured hepatocytes seeded on coverslips were fixed with 4% paraformaldehyde for 20 min, permeabilized with 0.3% Triton X-100 in PBS, and then blocked by 5% normal goat serum and 0.3% Triton X-100 in PBS, followed by incubation with anti-CREB (1:1000), anti-P-CREB (1:1000), or anti-HA (1:3000) antibodies for 1 h at 4 °C. Slides were then washed, and after washing, slides were incubated with fluorochrome-conjugated secondary antibodies (Invitrogen). Slides were then washed and mounted with Vectashield mounting media containing 4, 6-diamidino-2-phenylindole (DAPI).
1 Supplementary Figure 3. APC inhibits gluconeogenesis independent of CREB-phosphorylation,
2 cell toxin or AMPK activation. […]
20 e) Phosphate-AMPK level in primary hepatocytes incubated with APC or metformin (MET) at
21 indicated concentrations (0–200 μM) for 30 minutes (top). Relative P-AMPK normalized by AMPK is […]

[2] = 200 μM (first of two lines printed 200)
[3] = 200 μM (second of two lines printed 200)

Sequence of CBP (Q92793 whole entry): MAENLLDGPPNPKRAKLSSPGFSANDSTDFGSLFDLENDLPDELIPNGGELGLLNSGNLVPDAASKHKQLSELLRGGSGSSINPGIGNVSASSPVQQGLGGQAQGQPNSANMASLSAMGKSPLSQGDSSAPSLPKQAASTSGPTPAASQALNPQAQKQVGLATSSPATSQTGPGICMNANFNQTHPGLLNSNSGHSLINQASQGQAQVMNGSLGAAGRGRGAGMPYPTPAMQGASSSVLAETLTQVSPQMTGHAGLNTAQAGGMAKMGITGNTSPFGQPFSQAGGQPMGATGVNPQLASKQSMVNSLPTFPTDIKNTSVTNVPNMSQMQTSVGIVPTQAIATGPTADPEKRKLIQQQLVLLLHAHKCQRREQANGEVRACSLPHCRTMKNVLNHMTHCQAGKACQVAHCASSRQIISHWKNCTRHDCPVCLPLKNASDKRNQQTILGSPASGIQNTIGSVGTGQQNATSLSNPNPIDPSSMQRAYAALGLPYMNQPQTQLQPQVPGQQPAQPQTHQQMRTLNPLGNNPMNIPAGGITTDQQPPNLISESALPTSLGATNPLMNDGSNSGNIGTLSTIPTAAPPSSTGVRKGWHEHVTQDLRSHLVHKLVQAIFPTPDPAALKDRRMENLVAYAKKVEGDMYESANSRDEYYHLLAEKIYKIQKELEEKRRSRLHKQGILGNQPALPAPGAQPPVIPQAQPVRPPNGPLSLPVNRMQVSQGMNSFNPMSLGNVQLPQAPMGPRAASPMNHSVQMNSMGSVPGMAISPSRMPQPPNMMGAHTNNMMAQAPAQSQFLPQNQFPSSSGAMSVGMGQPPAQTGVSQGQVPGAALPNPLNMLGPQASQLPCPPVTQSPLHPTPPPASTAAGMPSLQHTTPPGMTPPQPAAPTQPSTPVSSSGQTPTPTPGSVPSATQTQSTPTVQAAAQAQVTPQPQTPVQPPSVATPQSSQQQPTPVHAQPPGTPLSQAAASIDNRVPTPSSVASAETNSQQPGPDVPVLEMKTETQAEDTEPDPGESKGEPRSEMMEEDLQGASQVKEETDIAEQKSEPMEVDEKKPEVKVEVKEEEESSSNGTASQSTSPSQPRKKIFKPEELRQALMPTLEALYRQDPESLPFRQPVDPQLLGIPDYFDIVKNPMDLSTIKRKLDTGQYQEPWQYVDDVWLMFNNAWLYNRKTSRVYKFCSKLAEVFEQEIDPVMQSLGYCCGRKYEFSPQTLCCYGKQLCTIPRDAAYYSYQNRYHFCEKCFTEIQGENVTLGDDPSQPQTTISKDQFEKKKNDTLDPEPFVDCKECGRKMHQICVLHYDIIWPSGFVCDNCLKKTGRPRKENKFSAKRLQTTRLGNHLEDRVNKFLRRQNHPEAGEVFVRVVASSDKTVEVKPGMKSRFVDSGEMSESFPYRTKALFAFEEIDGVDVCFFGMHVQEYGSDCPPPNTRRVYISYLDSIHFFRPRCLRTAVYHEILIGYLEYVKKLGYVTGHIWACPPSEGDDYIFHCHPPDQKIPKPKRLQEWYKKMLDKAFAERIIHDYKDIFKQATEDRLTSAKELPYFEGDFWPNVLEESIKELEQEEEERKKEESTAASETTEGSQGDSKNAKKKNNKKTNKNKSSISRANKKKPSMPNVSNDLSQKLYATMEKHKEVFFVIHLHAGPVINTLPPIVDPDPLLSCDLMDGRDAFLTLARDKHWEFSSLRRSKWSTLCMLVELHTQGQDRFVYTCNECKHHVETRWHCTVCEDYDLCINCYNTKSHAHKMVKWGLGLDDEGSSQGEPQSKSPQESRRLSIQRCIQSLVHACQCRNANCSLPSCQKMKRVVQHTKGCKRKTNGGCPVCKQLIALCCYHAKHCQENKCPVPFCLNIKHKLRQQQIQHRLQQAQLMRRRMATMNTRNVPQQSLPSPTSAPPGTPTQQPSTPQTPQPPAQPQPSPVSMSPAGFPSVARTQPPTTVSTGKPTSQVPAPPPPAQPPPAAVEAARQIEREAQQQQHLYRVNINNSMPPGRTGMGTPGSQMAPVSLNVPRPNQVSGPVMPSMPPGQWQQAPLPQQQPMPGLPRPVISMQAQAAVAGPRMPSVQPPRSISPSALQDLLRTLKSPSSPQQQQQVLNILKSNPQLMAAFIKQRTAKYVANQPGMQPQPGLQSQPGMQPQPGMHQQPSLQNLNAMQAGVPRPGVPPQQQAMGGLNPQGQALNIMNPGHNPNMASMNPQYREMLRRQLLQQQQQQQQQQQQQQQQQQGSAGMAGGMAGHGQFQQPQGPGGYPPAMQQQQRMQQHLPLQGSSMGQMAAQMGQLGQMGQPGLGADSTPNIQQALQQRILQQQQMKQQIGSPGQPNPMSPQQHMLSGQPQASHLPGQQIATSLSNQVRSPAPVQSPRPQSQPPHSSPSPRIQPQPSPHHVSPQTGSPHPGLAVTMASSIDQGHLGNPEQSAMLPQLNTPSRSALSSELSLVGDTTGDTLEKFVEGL

CC(C)=CCc1cc(C=CC(=O)O)cc(CC=C(C)C)c1O [APC, 3,5-diprenyl-4-hydroxycinnamic acid]
CBP/CRTC2 band gray signal, CRTC2-COIP fraction ([1]; Fig 2c replicates, APC+ (10 μM)): 0.6163 and 0.6152 and 0.6031 | interaction between endogenous CRTC2 and CBP ([1]; primary hepatocytes, APC 10 μM): little effect | relative H3K27ac level (CBP; APC 2 uM): 1.193 and 1.187 and 1.293 | relative H3K27ac level (CBP; APC 5 uM): 0.5384 and 0.3648 and 0.6529 | acetylation level of H3K27ac induced by CBP (CBP; HEK293 cells overexpressing HA-Cbp): dose-dependently reduced | relative p-AMPK protein, mean (AMPK; 5 μM): 0.9451 | relative p-AMPK protein, mean (AMPK; 10 μM): 0.8939 | relative p-AMPK protein, mean (AMPK; 100 μM): 0.906 | relative p-AMPK protein, mean (AMPK; [2]): 0.9865 | relative p-AMPK protein, mean (AMPK; [3]): 1.094 | relative p-AMPK protein (AMPK; 5 μM): 1.019 and 0.9566 and 0.8598 | relative p-AMPK protein (AMPK; 10 μM): 0.8723 and 0.8495 and 0.96 | relative p-AMPK protein (AMPK; 100 μM): 0.9495 and 0.9349 and 0.8336 | relative p-AMPK protein (AMPK; [2]): 0.9904 and 0.9893 and 0.9798 | relative p-AMPK protein (AMPK; [3]): 1.017 and 1.161 and 1.105 | relative p-AMPK protein, column mean (AMPK; mean over all concentrations, 0 μM included): 0.971 | phosphorylation of AMPK (AMPK; primary hepatocytes, up to 200 μM): did not induce phosphorylation of AMPK
